Assays:
Type in all cases: in vivo
[1] = system: BW ave; test: Post-emergent evaluation, average; conditions: after 2 weeks
Method: (§1) Seeds of the desired test plant species were planted in Grace-Sierra MetroMix® 306 planting mixture, which typically has a pH of 6.0 to 6.8 and an organic matter content of about 30 percent, in plastic pots with a surface area of 64 square centimeters. When required to ensure good germination and healthy plants, a fungicide treatment and/or other chemical or physical treatment was applied. The plants were grown for 7-21 days in a greenhouse with an approximate 15 hr photoperiod which was maintained at about 23-29° C. during the day and 22-28° C. during the night. Nutrients and water were added on a regular basis and supplemental lighting was provided with overhead metal halide 1000-Watt lamps as necessary. The plants were employed for testing when they reached the first or second true leaf stage.
(§2) A weighed amount, determined by the highest rate to be tested, of each test compound was placed in a 20 mL glass vial and was dissolved in 4 mL of a 97:3 v/v (volume/volume) mixture of acetone and dimethyl sulfoxide (DMSO) to obtain concentrated stock solutions. […] The concentrated stock solutions obtained were diluted with an aqueous mixture containing acetone, water, isopropyl alcohol, DMSO, Atplus 411F crop oil concentrate, and Triton X-155 surfactant in a 48.5:39:10:1.5:1.0:0.02 v/v ratio to obtain spray solutions of known concentration. The solutions containing the highest concentration to be tested were prepared by diluting 2 mL aliquots of the stock solution with 13 mL of the mixture and lower concentrations were prepared by serial dilution of the stock solution. Approximately 1.5 mL aliquots of each solution of known concentration were sprayed evenly onto each of the test plant pots using a DeVilbiss atomizer driven by compressed air pressure of 2 to 4 psi ([…]) to obtain thorough coverage of each plant. Control plants were sprayed in the same manner with the aqueous mixture. In this test an application rate of 1 ppm results in the application of approximately 1 g/Ha.
(§3) The treated plants and control plants were placed in a greenhouse as described above and watered by sub-irrigation to prevent wash-off of the test compounds. After 2 weeks the condition of the test plants as compared with that of the untreated plants was determined visually and scored on a scale of 0 to 100 percent where 0 corresponds to no injury and 100 corresponds to complete kill. Species abbreviations as described for Table I with the following additions: soybean (Glycine max, GLXMA), rape (Brassica napus, BRSNN), chickweed (Stellaria media, STEME), cocklebur (Xanthium strumarium XANST), lambsquarters (Chenopodium album, CHEAL), violet (Viola tricolor, VIOTR), bindweed (Polygonum convolvulus, POLCO), spurge (Euphorbia heterophylla, EPHHL), Canada thistle (Cirsium arvense, CIRAR), corn (Zea mays, ZEAMX), rice (Oryza sativa, ORYSA), wheat (Triticum aestivum, TRZAS), crabgrass (Digitaria sanguinalis, DIGSA), shattercane (Sorghum vulgare, SORVU) and yellow nutsedge (Cyperus esculentus, CYPES).

[2] = system: GW ave; test: Post-emergent evaluation, average; conditions: after 2 weeks
Method: as §1, §2, §3

[3] = system: lambsquarters (Chenopodium album, CHEAL); test: Synergistic herbicidal activity, foliar track sprayer; conditions: methylidene mevalonate 933 g ae/ha alone, 14 days, 1% crop oil concentrate
Method: Methylidene mevalonate alone and in combination with nonanoic acid was applied to the foliage of rapidly growing plant material utilizing a track sprayer calibrated to deliver an application volume of 187 L/ha. These treatments were applied to both broadleaf and grass weed species. All treatments contained 1% crop oil concentrate. Assessment of herbicidal activity was performed visually relative to untreated controls after 14 days incubation in the greenhouse. Species abbreviations are as previously defined.

[4] = system: wheat (Triticum aestivum, TRZAS); test: Post-emergent evaluation; conditions: after 2 weeks
Method: as §1, §2, §3

[5] = system: Canada thistle (Cirsium arvense, CIRAR); test: Post-emergent evaluation; conditions: after 2 weeks
Method: as §1, §2, §3

[6] = system: blackgrass (Alopecurus myosuroides, ALOMY); test: Post-emergent evaluation; conditions: after 2 weeks
Method: as §1, §2, §3

[7] = system: soybean (Glycine max, GLXMA); test: Post-emergent evaluation; conditions: after 2 weeks
Method: as §1, §2, §3

[8] = system: cocklebur (Xanthium strumarium XANST); test: Post-emergent evaluation; conditions: after 2 weeks
Method: as §1, §2, §3

[9] = system: corn (Zea mays, ZEAMX); test: Post-emergent evaluation; conditions: after 2 weeks
Method: as §1, §2, §3

[10] = system: rape (Brassica napus, BRSNN); test: Post-emergent evaluation; conditions: after 2 weeks
Method: as §1, §2, §3

[11] = system: wild oats (Avena fatua, AVEFA); test: Post-emergent evaluation; conditions: after 2 weeks
Method: as §1, §2, §3

[12] = system: rice (Oryza sativa, ORYSA); test: Post-emergent evaluation; conditions: after 2 weeks
Method: as §1, §2, §3

[13] = system: spurge (Euphorbia heterophylla, EPHHL); test: Post-emergent evaluation; conditions: after 2 weeks
Method: as §1, §2, §3

[14] = system: bindweed (Polygonum convolvulus, POLCO); test: Post-emergent evaluation; conditions: after 2 weeks
Method: as §1, §2, §3

C=C(CO)C(C)(O)CC(=O)O (stereo not drawn) [methylidene mevalonate, 3-hydroxy-4-(hydroxymethyl)-3-methylpent-4-enoic acid] was tested, and the “Postemergent % Control, BW ave” value ([1]; spray concentration 125 ppm) was 11%, the “Postemergent % Control, BW ave” value ([1]; spray concentration 250 ppm) was 15% and the “Postemergent % Control, BW ave” value ([1]; spray concentration 500 ppm) was 37%. For the same molecule, the “Postemergent % Control, BW ave” value ([1]; spray concentration 1000 ppm) was 54%, the “Postemergent % Control, BW ave” value ([1]; spray concentration 2000 ppm) was 63% and the “Postemergent % Control, GW ave” value ([2]; spray concentration 125 ppm) was 12%. For the same molecule, the “Postemergent % Control, GW ave” value ([2]; spray concentration 250 ppm) was 39%, the “Postemergent % Control, GW ave” value ([2]; spray concentration 500 ppm) was 64% and the “Postemergent % Control, GW ave” value ([2]; spray concentration 1000 ppm) was 82%. For the same molecule, the “Postemergent % Control, GW ave” value ([2]; spray concentration 2000 ppm) was 88%, the “Actual Injury % growth reduction” value [3] was 0% and the “Postemergent % Control” value ([4]; spray concentration 125 ppm) was 0%. For the same molecule, the “Postemergent % Control” value ([4]; spray concentration 250 ppm) was 20%, the “Postemergent % Control” value ([4]; spray concentration 500 ppm) was 20% and the “Postemergent % Control” value ([4]; spray concentration 1000 ppm) was 70%. The “Postemergent % Control” value ([4]; spray concentration 2000 ppm) was 80%, the “Postemergent % Control” value ([5]; spray concentration 125 ppm) was 10% and the “Postemergent % Control” value ([5]; spray concentration 250 ppm) was 10%. The “Postemergent % Control” value ([5]; spray concentration 500 ppm) was 20%, the “Postemergent % Control” value ([5]; spray concentration 1000 ppm) was 40% and the “Postemergent % Control” value ([5]; spray concentration 2000 ppm) was 50%. For the same molecule, the “Postemergent % Control” value ([6]; spray concentration 125 ppm) was 0%, the “Postemergent % Control” value ([6]; spray concentration 250 ppm) was 20% and the “Postemergent % Control” value ([6]; spray concentration 500 ppm) was 60%. The “Postemergent % Control” value ([6]; spray concentration 1000 ppm) was 70%, the “Postemergent % Control” value ([6]; spray concentration 2000 ppm) was 80% and the “Postemergent % Control” value ([7]; spray concentration 125 ppm) was 20%. For the same molecule, the “Postemergent % Control” value ([7]; spray concentration 250 ppm) was 20%, the “Postemergent % Control” value ([7]; spray concentration 500 ppm) was 50% and the “Postemergent % Control” value ([7]; spray concentration 1000 ppm) was 80%. For the same molecule, the “Postemergent % Control” value ([7]; spray concentration 2000 ppm) was 80%, the “Postemergent % Control” value ([8]; spray concentration 125 ppm) was 0% and the “Postemergent % Control” value ([8]; spray concentration 250 ppm) was 5%. The “Postemergent % Control” value ([8]; spray concentration 500 ppm) was 10%, the “Postemergent % Control” value ([8]; spray concentration 1000 ppm) was 20% and the “Postemergent % Control” value ([8]; spray concentration 2000 ppm) was 20%. The “Postemergent % Control” value ([9]; spray concentration 125 ppm) was 0%, the “Postemergent % Control” value ([9]; spray concentration 250 ppm) was 20% and the “Postemergent % Control” value ([9]; spray concentration 500 ppm) was 60%. For the same molecule, the “Postemergent % Control” value ([9]; spray concentration 1000 ppm) was 98%, the “Postemergent % Control” value ([9]; spray concentration 2000 ppm) was 98% and the “Postemergent % Control” value ([10]; spray concentration 125 ppm) was 0%. The “Postemergent % Control” value ([10]; spray concentration 250 ppm) was 10%, the “Postemergent % Control” value ([10]; spray concentration 500 ppm) was 50% and the “Postemergent % Control” value ([10]; spray concentration 1000 ppm) was 50%. The “Postemergent % Control” value ([10]; spray concentration 2000 ppm) was 60%, the “Postemergent % Control” value ([11]; spray concentration 125 ppm) was 0% and the “Postemergent % Control” value ([11]; spray concentration 250 ppm) was 0%. The “Postemergent % Control” value ([11]; spray concentration 500 ppm) was 20%, the “Postemergent % Control” value ([11]; spray concentration 1000 ppm) was 85% and the “Postemergent % Control” value ([11]; spray concentration 2000 ppm) was 90%. The “Postemergent % Control” value ([12]; spray concentration 125 ppm) was 0%, the “Postemergent % Control” value ([12]; spray concentration 250 ppm) was 30% and the “Postemergent % Control” value ([12]; spray concentration 500 ppm) was 40%. The “Postemergent % Control” value ([12]; spray concentration 1000 ppm) was 80%, the “Postemergent % Control” value ([12]; spray concentration 2000 ppm) was 80% and the “Postemergent % Control” value ([13]; spray concentration 125 ppm) was 30%. For the same molecule, the “Postemergent % Control” value ([13]; spray concentration 250 ppm) was 30%, the “Postemergent % Control” value ([13]; spray concentration 500 ppm) was 50% and the “Postemergent % Control” value ([13]; spray concentration 1000 ppm) was 60%. The “Postemergent % Control” value ([13]; spray concentration 2000 ppm) was 70%, the “Postemergent % Control” value ([14]; spray concentration 125 ppm) was 20% and the “Postemergent % Control” value ([14]; spray concentration 250 ppm) was 20%. The “Postemergent % Control” value ([14]; spray concentration 500 ppm) was 85%, the “Postemergent % Control” value ([14]; spray concentration 1000 ppm) was 90% and the “Postemergent % Control” value ([14]; spray concentration 2000 ppm) was 95%.

From patent publication US7393812B2, “Methylidene mevalonates and their use as herbicides” (Dow AgroSciences LLC, priority 2004, dated 2008)
